Data reported in patent US9695155B2, “Herbicidal substituted pyrimidinyloxy benzene compounds” (E. I. DU PONT DE NEMOURS AND COMPANY, priority 2013, dated 2017).

Tests used:
large (Lg) crabgrass [1] = assay: Test C postemergence; format: in vivo, Digitaria sanguinalis; conditions: Digitaria sanguinalis, post-emergence
Excerpt: (§1) Seeds of plant species selected from blackgrass (Alopecurus myosuroides), Italian ryegrass (Lolium multiflorum), wheat, winter (winter wheat, Triticum aestivum), galium (catchweed bedstraw, Galium aparine), corn (Zea mays), large (Lg) crabgrass (Digitaria sanguinalis), giant foxtail (Setaria faberii), johnsongrass (Sorghum halepense), lambsquarters (Chenopodium album), morningglory (Ipomoea coccinea), yellow nutsedge (Cyperus esculentus), pigweed (Amaranthus retroflexus), ragweed (common ragweed, Ambrosia elatior), soybean (Glycine max), barnyardgrass (Echinochloa crus-galli), oilseed rape (Brassica napus), waterhemp (common waterhemp, Amaranthus rudis), kochia (Kochia scoparia), wild oat (Avena fatua), surinam grass (Brachiaria decumbens), foxtail, green (green foxtail, Setaria viridis), goosegrass (Eleusine indica), bromegrass, downy (downy bromegrass, Bromus tectorum), nightshade (eastern black nightshade, Solanum ptycanthum), cocklebur (common cocklebur, Xanthium strumarium), cupgrass, woolly (woolly cupgrass, Eriochloa villosa), bermudagrass (Cynodon dactylon), sunflower, (common oilseed sunflower, Helianthus annuus), Russian thistle (Salsola kali), and velvetleaf (Abutilon theophrasti) were planted into a blend of loam soil and sand and treated preemergence with test chemicals formulated in a non-phytotoxic solvent mixture which included a surfactant.
(§2) At the same time, plants selected from these crop and weed species and also barley, winter (winter barley, Hordeum vulgare), windgrass (Apera spica-venti), chickweed (common chickweed, Stellaria media), deadnettle (henbit deadnettle, Lamium amplexicaule), and canarygrass (littleseed canarygrass, Phalaris minor) were planted in pots containing Redi-Earth® planting medium (Scotts Company, 14111 Scottslawn Road, Marysville, Ohio 43041) comprising spaghnum peat moss, vermiculite, wetting agent and starter nutrients and treated with postemergence applications of test chemicals formulated in the same manner. Plants ranged in height from 2 to 18 cm (1- to 4-leaf stage) for postemergence treatments. Treated plants and controls were maintained in a greenhouse for 13 to 15 days, after which time all species were compared to controls and visually evaluated. Plant response ratings, summarized in Table C, are based on a scale of 0 to 100 where 0 is no effect and 100 is complete control. A dash (-) response means no test result.

johnsongrass = assay: Test C postemergence; format: in vivo, Sorghum halepense; conditions: Sorghum halepense, post-emergence
Excerpt: as §1, §2

wheat, winter = assay: Test C postemergence; format: in vivo, Triticum aestivum; conditions: Triticum aestivum, post-emergence
Excerpt: as §1, §2

velvetleaf = assay: Test A postemergence; format: in vivo, Abutilon theophrasti; conditions: Abutilon theophrasti, post-emergence, 240 h
Method in brief: (§3)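 Visual 0–100 rating (100 = complete control) taken about 10 d post-treatment relative to untreated checks. Preemergence: directed soil spray on sown loam/sand pots. Postemergence: seedlings 2–10 cm, 1–2 leaf. Non-phytotoxic solvent formulation with surfactant.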

yellow nutsedge = assay: Test C postemergence; format: in vivo, Cyperus esculentus; conditions: Cyperus, post-emergence
Excerpt: as §1, §2

corn [2] = assay: Test A postemergence; format: in vivo, Zea mays; conditions: Zea mays, post-emergence, 240 h
Method in brief: as §3

corn [3] = assay: Test C postemergence; format: in vivo, Zea mays; conditions: Zea mays, post-emergence
Excerpt: as §1, §2

giant foxtail = assay: Test C postemergence; format: in vivo, Setaria faberii; conditions: Setaria faberi, post-emergence
Excerpt: as §1, §2

barnyardgrass = assay: Test A postemergence; format: in vivo, Echinochloa crus-galli; conditions: Echinochloa crus-galli, post-emergence, 240 h
Method in brief: as §3

large (Lg) crabgrass [4] = assay: Test A preemergence; format: in vivo, Digitaria sanguinalis; conditions: Digitaria sanguinalis, pre-emergence, 240 h, read-out: Crabgrass, Large plant response rating
Method in brief: as §3

[5] = 125 g ai/ha, 0 to 100 scale where 0 is no effect and 100 is complete control

## Clc1cnn(-c2ccccc2Oc2ncc(Br)cn2)c1 [Compound 5, 5-bromo-2-[2-(4-chloro-1H-pyrazol-1-yl)phenoxy]pyrimidine]
Large (Lg) crabgrass [1]; 125 g ai/ha, postemergence, read-out: Plant response rating (0 to 100), Crabgrass, Large
  pest or weed control at 125 g/ha: 20%
Large (Lg) crabgrass [1]; 250 g ai/ha, postemergence, read-out: Plant response rating (0 to 100), Crabgrass, Large
  pest or weed control at 250 g/ha: 20%
Large (Lg) crabgrass [1]; Postemergence, 31 g ai/ha, scale 0 to 100 (0 no effect, 100 complete control), 13 to 15 days, read-out: Plant response rating, Crabgrass, Large
  pest or weed control at 31 g/ha: 5%
Large (Lg) crabgrass [1]; Postemergence, 62 g ai/ha, scale 0 to 100 (0 no effect, 100 complete control), read-out: Plant response rating, Crabgrass, Large
  pest or weed control at 62 g/ha: 15%
johnsongrass; 125 g ai/ha, postemergence, read-out: Plant response rating (0 to 100), Johnsongrass
  pest or weed control at 125 g/ha: 5%
johnsongrass; 250 g ai/ha, postemergence, read-out: Plant response rating (0 to 100), Johnsongrass
  pest or weed control at 250 g/ha: 10%
johnsongrass; Postemergence, 31 g ai/ha, scale 0 to 100 (0 no effect, 100 complete control), 13 to 15 days, read-out: Plant response rating, Johnsongrass
  pest or weed control at 31 g/ha: 5%
johnsongrass; Postemergence, 62 g ai/ha, scale 0 to 100 (0 no effect, 100 complete control), read-out: Plant response rating, Johnsongrass
  pest or weed control at 62 g/ha: 5%
wheat, winter; 125 g ai/ha, postemergence, read-out: Plant response rating (0 to 100), Wheat
  plant injury at 125 g/ha: 10%
wheat, winter; 250 g ai/ha, postemergence, read-out: Plant response rating (0 to 100), Wheat
  plant injury at 250 g/ha: 40%
wheat, winter; Postemergence, 31 g ai/ha, scale 0 to 100 (0 no effect, 100 complete control), 13 to 15 days, read-out: Plant response rating, Wheat
  plant injury at 31 g/ha: 0%
wheat, winter; Postemergence, 62 g ai/ha, scale 0 to 100 (0 no effect, 100 complete control), read-out: Plant response rating, Wheat
  plant injury at 62 g/ha: 5%
velvetleaf; 125 g ai/ha, 0 to 100 scale where 0 is no effect and 100 is complete control, read-out: Plant response rating, Velvetleaf
  pest or weed control at 125 g/ha: 100%
velvetleaf; 500 g ai/ha, 0 to 100 scale, 0 no effect, 100 complete control, read-out: Plant response rating Velvetleaf
  pest or weed control at 500 g/ha: 100%
Yellow nutsedge; 125 g ai/ha, postemergence, read-out: Plant response rating (0 to 100), Nutsedge, Yellow
  pest or weed control at 125 g/ha: 15%
Yellow nutsedge; 250 g ai/ha, postemergence, read-out: Plant response rating (0 to 100), Nutsedge, Yellow
  pest or weed control at 250 g/ha: 15%
Yellow nutsedge; Postemergence, 31 g ai/ha, scale 0 to 100 (0 no effect, 100 complete control), 13 to 15 days, read-out: Plant response rating, Nutsedge, Yellow
  pest or weed control at 31 g/ha: 5%
Yellow nutsedge; Postemergence, 62 g ai/ha, scale 0 to 100 (0 no effect, 100 complete control), read-out: Plant response rating, Nutsedge, Yellow
  pest or weed control at 62 g/ha: 5%
Corn [2]; [5]
  Corn plant response rating (crop injury, 0 = no effect, 100 = complete kill) at 125 g/ha: 0%
Corn [2]; 500 g ai/ha, 0 to 100 scale, 0 no effect, 100 complete control, read-out: Plant response rating Corn
  plant injury at 500 g/ha: 30%
Corn [3]; 125 g ai/ha, postemergence, read-out: Plant response rating (0 to 100), Corn
  plant injury at 125 g/ha: 60%
Corn [3]; 250 g ai/ha, postemergence, read-out: Plant response rating (0 to 100), Corn
  plant injury at 250 g/ha: 70%
Corn [3]; Postemergence, 31 g ai/ha, scale 0 to 100 (0 no effect, 100 complete control), 13 to 15 days
  Corn plant response rating (crop injury, 0 = no effect, 100 = complete kill) at 31 g/ha: 15%
Corn [3]; Postemergence, 62 g ai/ha, scale 0 to 100 (0 no effect, 100 complete control)
  Corn plant response rating (crop injury, 0 = no effect, 100 = complete kill) at 62 g/ha: 20%
Giant foxtail; 125 g ai/ha, postemergence, read-out: Plant response rating (0 to 100), Foxtail, Giant
  pest or weed control at 125 g/ha: 5%
Giant foxtail; 250 g ai/ha, postemergence, read-out: Plant response rating (0 to 100), Foxtail, Giant
  pest or weed control at 250 g/ha: 10%
Giant foxtail; Postemergence, 31 g ai/ha, scale 0 to 100 (0 no effect, 100 complete control), 13 to 15 days, read-out: Plant response rating, Foxtail, Giant
  pest or weed control at 31 g/ha: 5%
Giant foxtail; Postemergence, 62 g ai/ha, scale 0 to 100 (0 no effect, 100 complete control), read-out: Plant response rating, Foxtail, Giant
  pest or weed control at 62 g/ha: 5%
barnyardgrass; 125 g ai/ha, 0 to 100 scale where 0 is no effect and 100 is complete control, read-out: Plant response rating, Barnyardgrass
  pest or weed control at 125 g/ha: 10%
barnyardgrass; 500 g ai/ha, 0 to 100 scale, 0 no effect, 100 complete control, read-out: Plant response rating Barnyardgrass
  pest or weed control at 500 g/ha: 60%
Large (Lg) crabgrass [4]; [5]
  pest or weed control at 125 g/ha: 90%
Large (Lg) crabgrass [4]; 500 g ai/ha, 0 to 100 scale, 0 no effect, 100 complete control, approx. 10 days
  pest or weed control at 500 g/ha: 90%
